From US9102701B2, “17-hydroxy-17-pentafluoroethyl-estra-4,9(10)-diene-11-ethynylphenyl derivatives, methods for the production thereof and use thereof for treating diseases” (Bayer Intellectual Property GmbH, priority 2009, dated 2015)

Key:
[1] = target: T1, human progesterone receptor A (Homo sapiens, UniProt P06401); assay: Progesterone receptor-antagonistic action in stably transfected SK-N-MC cells, PR-A, MMTV-LUC reporter; format: cell-based; details: read-out: IC50 PR-A
T1 construct: expressed in transfected cells; host or cells: SK-N-MC human neuroblastoma cells, stably transfected with pRChPR-A-neo and pMMTV-LUC
T1 sequence (P06401 1-769 isoform P06401-2): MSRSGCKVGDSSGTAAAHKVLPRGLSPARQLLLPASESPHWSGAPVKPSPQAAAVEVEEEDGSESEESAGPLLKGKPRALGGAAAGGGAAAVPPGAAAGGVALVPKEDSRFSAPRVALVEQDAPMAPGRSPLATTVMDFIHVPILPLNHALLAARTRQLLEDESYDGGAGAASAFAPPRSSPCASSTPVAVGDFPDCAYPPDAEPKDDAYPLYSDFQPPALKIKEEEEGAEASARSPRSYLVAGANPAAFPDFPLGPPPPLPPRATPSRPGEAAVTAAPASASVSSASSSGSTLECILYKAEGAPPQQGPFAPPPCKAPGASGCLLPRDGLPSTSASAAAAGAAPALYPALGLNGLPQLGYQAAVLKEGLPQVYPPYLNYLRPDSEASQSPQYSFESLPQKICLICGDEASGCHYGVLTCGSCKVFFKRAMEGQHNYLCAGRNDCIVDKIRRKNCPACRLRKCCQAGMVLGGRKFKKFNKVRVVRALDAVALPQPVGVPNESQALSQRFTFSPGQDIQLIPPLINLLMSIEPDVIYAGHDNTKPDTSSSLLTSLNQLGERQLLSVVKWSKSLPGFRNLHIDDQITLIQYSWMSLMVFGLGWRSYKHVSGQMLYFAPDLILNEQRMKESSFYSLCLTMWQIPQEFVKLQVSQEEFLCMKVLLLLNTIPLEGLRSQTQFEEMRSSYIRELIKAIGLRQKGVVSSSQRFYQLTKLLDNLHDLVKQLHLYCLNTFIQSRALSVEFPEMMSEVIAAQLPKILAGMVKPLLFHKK
Protocol: (§1) Determination of Progesterone Receptor-Antagonistic Action in Stable Transfectants of Human Neuroblastoma Cells (SK-N-MC Cells) with the Human Progesterone a or Progesterone B Receptor and an MN-LUC Reporter Construct
(§2) SK-N-MC cells (human neuroblastoma cells) which have been stably transfected with plasmids expressing the human progesterone receptor B (pRChPR-B-neo) or the human progesterone receptor A (pRChPR-A-neo) and a reporter construct (pMMTV-LUC) were incubated for 24 hours either in the absence (negative control) or in the presence of ascending amounts of the particular test compound (0.01 nmol/l, 0.1 nmol/l, 1 nmol/l, 10 nmol/l, 100 nmol/l and […]), in order to determine the agonistic efficacy. As a positive control of the reporter gene induction, the cells were treated with the synthetic gestagen promegestone (0.01 nmol/l, 0.1 nmol/l, 1 nmol/l, 10 nmol/l, 100 nmol/l and […]). To determine the antagonistic activity, the cells were treated with 0.1 nmol/l promegestone and additionally with ascending amounts of the particular test compound (0.01 nmol/l, 0.1 nmol/l, 1 nmol/l, 10 nmol/l, 100 nmol/l and […]). The activity of the reporter gene LUC (LUC=luciferase) was determined in the cell lysates and measured as RLU (relative light units). All measurements are reported as % efficacy and as EC50 and IC50 concentrations.

[2] = target: T2, human progesterone receptor B (Homo sapiens, UniProt P06401); assay: Progesterone receptor-antagonistic action in stably transfected SK-N-MC cells, PR-B, MMTV-LUC reporter; format: cell-based; details: read-out: IC50 PR-B
T2 construct: expressed in transfected cells; host or cells: SK-N-MC human neuroblastoma cells, stably transfected with pRChPR-B-neo and pMMTV-LUC
T2 sequence (P06401 1-933): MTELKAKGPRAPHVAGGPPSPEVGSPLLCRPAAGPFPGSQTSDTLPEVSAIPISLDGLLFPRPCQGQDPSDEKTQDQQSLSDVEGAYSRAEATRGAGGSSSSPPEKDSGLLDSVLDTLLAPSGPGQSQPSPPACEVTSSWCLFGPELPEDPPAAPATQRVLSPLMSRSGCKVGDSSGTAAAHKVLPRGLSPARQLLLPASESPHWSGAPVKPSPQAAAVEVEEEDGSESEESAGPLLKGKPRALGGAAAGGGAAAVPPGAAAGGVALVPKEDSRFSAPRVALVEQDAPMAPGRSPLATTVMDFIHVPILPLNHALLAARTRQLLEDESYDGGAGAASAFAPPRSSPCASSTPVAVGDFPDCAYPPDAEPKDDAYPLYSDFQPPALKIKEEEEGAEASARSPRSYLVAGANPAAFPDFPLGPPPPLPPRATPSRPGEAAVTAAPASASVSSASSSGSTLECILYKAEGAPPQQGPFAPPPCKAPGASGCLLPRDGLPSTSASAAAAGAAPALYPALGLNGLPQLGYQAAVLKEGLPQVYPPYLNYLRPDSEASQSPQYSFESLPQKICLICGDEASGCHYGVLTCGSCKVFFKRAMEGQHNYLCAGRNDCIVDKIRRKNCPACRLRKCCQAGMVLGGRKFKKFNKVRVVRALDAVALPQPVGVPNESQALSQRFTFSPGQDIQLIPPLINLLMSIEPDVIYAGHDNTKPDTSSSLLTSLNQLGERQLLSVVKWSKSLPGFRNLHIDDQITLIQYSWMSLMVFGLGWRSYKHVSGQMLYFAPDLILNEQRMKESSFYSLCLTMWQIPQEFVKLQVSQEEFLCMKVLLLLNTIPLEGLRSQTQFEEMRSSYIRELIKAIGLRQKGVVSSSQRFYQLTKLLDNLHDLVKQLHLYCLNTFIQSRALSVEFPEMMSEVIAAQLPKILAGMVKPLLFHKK
Protocol: as §1, §2

IC50 [1] [nM]	IC50 [2] [nM]	SMILES
0.01	0.01	Cc1ccc(NC(=O)OCC#Cc2ccc([C@H]3C[C@@]4(C)C(CC[C@@]4(O)C(F)(F)C(F)(F)F)C4CCC5=CC(=O)CCC5=C43)cc2)cc1 (stereo partly drawn) [Example 47, 4-methylphenylcarbamic acid 3-[4-((8S,11R,13S,14S,17S)-17-hydroxy-13-methyl-3-oxo-17-pentafluoroethyl-2,3,6,7,8,11,12,13,14,15,16,17-dodecahydro-1H-cyclopenta[a]phenanthren-1′-yl)phenyl]prop-2-ynyl ester]
0.01	0.01	C[C@]12C[C@H](c3ccc(C#CCOC(=O)Nc4ccccc4)cc3)C3=C4CCC(=O)C=C4CCC3C1CC[C@@]2(O)C(F)(F)C(F)(F)F (stereo partly drawn) [Example 46, phenylcarbamic acid 3-[4-((8S,11R,13S,14S,17S)-17-hydroxy-13-methyl-3-oxo-17-pentafluoroethyl-2,3,6,7,8,11,12,13,14,15,16,17-dodecahydro-1H-cyclopenta[a]phenanthren-1′-yl)phenyl]prop-2-ynyl ester]
0.09	0.01	CC(C)(C)NC(=O)OCC#Cc1ccc([C@H]2C[C@@]3(C)C(CC[C@@]3(O)C(F)(F)C(F)(F)F)C3CCC4=CC(=O)CCC4=C32)cc1 (stereo partly drawn) [Example 58, tert-butylcarbamic acid 3-[4-((8S,11R,13S,14S,17S)-17-hydroxy-13-methyl-3-oxo-17-pentafluoroethyl-2,3,6,7,8,11,12,13,14,15,16,17-dodecahydro-1H-cyclopenta[a]phenanthren-1′-yl)phenyl]prop-2-ynyl ester]
0.01	0.08	C[C@]12C[C@H](c3ccc(C#CCOC(=O)Nc4cccnc4)cc3)C3=C4CCC(=O)C=C4CC[C@H]3[C@@H]1CC[C@@]2(O)C(F)(F)C(F)(F)F [Example 57, 3-pyridylcarbamic acid 3-[4-((8S,11R,13S,14S,17S)-17-hydroxy-13-methyl-3-oxo-17-pentafluoroethyl-2,3,6,7,8,11,12,13,14,15,16,17-dodecahydro-1H-cyclopenta[a]phenanthren-1′-yl)phenyl]prop-2-ynyl ester]

More lines, now with the values behind:

SMILES	IC50 [1] [nM]	IC50 [2] [nM]
Cc1noc(C)c1NC(=O)NCC#Cc1ccc([C@H]2C[C@@]3(C)C(CC[C@@]3(O)C(F)(F)C(F)(F)F)C3CCC4=CC(=O)CCC4=C32)cc1 (stereo partly drawn) [Example 28, 1-(3,5-dimethylisoxazol-4-yl)-3-{3-[4-((8S,11R,13S,14S,17S)-17-hydroxy-13-methyl-3-oxo-17-pentafluoroethyl-2,3,6,7,8,11,12,13,14,15,16,17-dodecahydro-1H-cyclopenta[a]phenanthren-1′-yl)phenyl]prop-2-ynyl}urea]	0.04	0.08
C=CCNC(=O)OCC#Cc1ccc([C@H]2C[C@@]3(C)C(CC[C@@]3(O)C(F)(F)C(F)(F)F)C3CCC4=CC(=O)CCC4=C32)cc1 (stereo partly drawn) [Example 44, allylcarbamic acid 3-[4-((8S,11R,13S,14S,17S)-17-hydroxy-13-methyl-3-oxo-17-pentafluoroethyl-2,3,6,7,8,11,12,13,14,15,16,17-dodecahydro-1H-cyclopenta[a]phenanthren-1′-yl)phenyl]prop-2-ynyl ester]	0.01	0.01
CC(C)(C)c1ccc(NC(=O)NCC#Cc2ccc([C@H]3C[C@@]4(C)[C@@H](CC[C@@]4(O)C(F)(F)C(F)(F)F)[C@@H]4CCC5=CC(=O)CCC5=C43)cc2)cc1 [Example 33, 1-{3-[4-((8S,11R,13S,14S,17S)-17-hydroxy-13-methyl-3-oxo-17-pentafluoroethyl-2,3,6,7,8,11,12,13,14,15,16,17-dodecahydro-1H-cyclopenta[a]phenanthren-11-yl)phenyl]prop-2-ynyl}-3-(4-tert-butylphenyl)urea]	0.9	0.8
C[C@]12C[C@H](c3ccc(C#CCOCC(=O)O)cc3)C3=C4CCC(=O)C=C4CCC3C1CC[C@@]2(O)C(F)(F)C(F)(F)F (stereo partly drawn) [Example 10, {3-[4-((8S,11R,13S,14S,17S)-17-hydroxy-13-methyl-3-oxo-17-pentafluoroethyl-2,3,6,7,8,11,12,13,14,15,16,17-dodecahydro-1H-cyclopenta[a]phenanthren-1′-yl)phenyl]prop-2-ynyloxy}acetic acid]	9	10
CCOC(=O)C=CC=CC#Cc1ccc([C@H]2C[C@@]3(C)C(CC[C@@]3(O)C(F)(F)C(F)(F)F)C3CCC4=CC(=O)CCC4=C32)cc1 (stereo partly drawn) [Example 7, 7-(2E/Z,4E/Z)-[4-((8S,11R,13S,14S,17S)-17-hydroxy-13-methyl-3-oxo-17-pentafluoroethyl-2,3,6,7,8,11,12,13,14,15,16,17-dodecahydro-1H-cyclopenta[a]phenanthren-1′-yl)phenyl]hepta-2,4-dien-6-ynoic acid ethyl ester]	0.8	0.9
CC(C)(C)NC(=O)NCC#Cc1ccc([C@H]2C[C@@]3(C)[C@@H](CC[C@@]3(O)C(F)(F)C(F)(F)F)[C@@H]3CCC4=CC(=O)CCC4=C32)cc1 [Example 40, 1-{3-[4-((8S,11R,13S,14S,17S)-17-hydroxy-13-methyl-3-oxo-17-pentafluoroethyl-2,3,6,7,8,11,12,13,14,15,16,17-dodecahydro-1H-cyclopenta[a]phenanthren-11-yl)phenyl]prop-2-ynyl}-3-tert-butylurea]	0.1	0.3
C#Cc1ccc([C@H]2C[C@@]3(C)C(CC[C@@]3(O)C(F)(F)C(F)(F)F)C3CCC4=CC(=O)CCC4=C32)cc1 (stereo partly drawn) [Example 22, (8S,11R,13S,14S,17S)-1′-(4-ethynylphenyl)-17-hydroxy-13-methyl-17-pentafluoroethyl-1,2,6,7,8,11,12,13,14,15,16,17-dodecahydrocyclopenta[a]phenanthren-3-one]	0.014	0.014
CC(C)(C)OC(=O)COCC#Cc1ccc([C@H]2C[C@@]3(C)[C@@H](CC[C@@]3(O)C(F)(F)C(F)(F)F)[C@@H]3CCC4=CC(=O)CCC4=C32)cc1 [Example 8, {3-[4-((8S,11R,13S,14S,17S)-17-hydroxy-13-methyl-3-oxo-17-pentafluoroethyl-2,3,6,7,8,11,12,13,14,15,16,17-dodecahydro-1H-cyclopenta[a]phenanthren-11-yl)phenyl]prop-2-ynyloxy}acetic acid tert-butyl ester]	0.32	0.41
